Experimental data: PubChem BioAssay (NCI)
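Dose response: 5 concentrations. Exposure: 48 h. Format: 96-well plates. Endpoint: linear interpolation; highest concentration if not reached. GI50: concentration for 50% inhibition of growth. The concentration for full growth arrest is given as TGI.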

Columns and labels:
Experiment in all cases: DTP human tumour cell line panel, 48 h
[1] = tested on: SF-539 CNS
[2] = tested on: MALME-3M melanoma
[3] = tested on: NCI-H226 lung
[4] = tested on: OVCAR-3 ovarian
[5] = tested on: KM12 colon
[6] = tested on: UACC-62 melanoma
[7] = tested on: SNB-75 CNS
[8] = tested on: SNB-19 CNS
[9] = tested on: SN12C renal
[10] = tested on: A498 renal
[11] = tested on: MDA-MB-435
[12] = tested on: SW-620 colon
[13] = tested on: OVCAR-5 ovarian
[14] = tested on: PC-3 prostate
[15] = tested on: EKVX NSCLC
[16] = tested on: HCT-15 colon
[17] = tested on: HT29 colon
[18] = tested on: ACHN renal
[19] = tested on: UO-31 renal
[20] = tested on: SF-268 CNS
[21] = tested on: HCC-2998 colon
[22] = tested on: CAKI-1 renal
[23] = tested on: RXF 393 renal
[24] = tested on: UACC-257 melanoma
[25] = tested on: DU-145 prostate
[26] = tested on: SK-OV-3 ovarian
[27] = tested on: RPMI-8226 leukemia
[28] = tested on: TK-10 renal
[29] = tested on: T-47D breast
[30] = tested on: MOLT-4 leukemia
[31] = tested on: LOX IMVI melanoma
[32] = tested on: OVCAR-4 ovarian
[33] = tested on: SK-MEL-5 melanoma
[34] = tested on: HOP-62 NSCLC
[35] = tested on: NCI-H460 lung
[36] = tested on: SK-MEL-28 melanoma
[37] = tested on: HS 578T breast
[38] = tested on: NCI-H522 lung
[39] = tested on: 786-0 renal
[40] = tested on: NCI-H23 lung
[41] = tested on: HCT-116 colon
[42] = tested on: A549 NSCLC
[43] = tested on: HL-60(TB) leukemia
[44] = tested on: OVCAR-8 ovarian
[45] = tested on: BT-549 breast
[46] = tested on: M14 melanoma
[47] = tested on: NCI/ADR-RES ovarian
[48] = tested on: IGROV1 ovarian
[49] = tested on: U251 CNS
[50] = tested on: SF-295 CNS
[51] = tested on: MDA-MB-231 breast
[52] = tested on: K-562 leukemia
[53] = tested on: HOP-92 NSCLC
[54] = tested on: CCRF-CEM leukemia
[55] = tested on: COLO 205 colon
[56] = tested on: SR leukemia
[57] = tested on: MCF7 breast
[58] = tested on: SK-MEL-2 melanoma

CCc1c2c(nc3ccc(OC(=O)NCc4ccc(B5OC(C)(C)C(C)(C)O5)cc4)cc13)-c1cc3c(c(=O)n1C2)COC(=O)[C@]3(O)CC
GI50 [1]: < 0.01 µM
TGI [1]: 0.0771 µM
GI50 [2]: 0.0741 µM
TGI [2]: 1.31 µM
GI50 [3]: 0.0216 µM
TGI [3]: 0.635 µM
GI50 [4]: 0.148 µM
TGI [4]: 3.2 µM
GI50 [5]: 0.167 µM
TGI [5]: > 30.1 µM
GI50 [6]: < 0.01 µM
TGI [6]: 0.22 µM
GI50 [7]: 0.0199 µM
TGI [7]: 0.448 µM
GI50 [8]: < 0.01 µM
TGI [8]: > 100 µM
GI50 [9]: < 0.01 µM
TGI [9]: > 100 µM
GI50 [10]: 0.0141 µM
TGI [10]: 0.175 µM
GI50 [11]: 0.107 µM
TGI [11]: 2.7 µM
GI50 [12]: 0.0227 µM
GI50 [13]: 0.287 µM
TGI [13]: > 24.3 µM
GI50 [14]: 0.144 µM
TGI [14]: > 100 µM
GI50 [15]: 0.758 µM
TGI [15]: > 81.9 µM
GI50 [16]: 0.277 µM
TGI [16]: > 100 µM
GI50 [17]: 0.12 µM
TGI [17]: > 21.2 µM
GI50 [18]: 0.0202 µM
TGI [18]: 1.13 µM
GI50 [19]: 0.0274 µM
TGI [19]: 0.294 µM
GI50 [20]: < 0.01 µM
TGI [20]: 4.04 µM
GI50 [21]: 0.25 µM
TGI [21]: 3.56 µM
GI50 [22]: 0.0162 µM
TGI [22]: 1.1 µM
GI50 [23]: 0.0279 µM
TGI [23]: 0.322 µM
GI50 [24]: 0.226 µM
TGI [24]: 3.36 µM
GI50 [25]: 0.0168 µM
TGI [25]: > 100 µM
GI50 [26]: 0.0286 µM
TGI [26]: 8.18 µM
GI50 [27]: 0.27 µM
TGI [27]: 3.48 µM
GI50 [28]: 1.6 µM
TGI [28]: > 91.4 µM
GI50 [29]: < 0.01 µM
TGI [29]: > 100 µM
GI50 [30]: < 0.01 µM
TGI [30]: > 100 µM
GI50 [31]: < 0.01 µM
TGI [31]: 0.167 µM
GI50 [32]: 0.392 µM
TGI [32]: 63.7 µM
GI50 [33]: 0.0356 µM
TGI [33]: 0.301 µM
GI50 [34]: < 0.01 µM
TGI [34]: 2.92 µM
GI50 [35]: 0.0141 µM
TGI [35]: 0.343 µM
GI50 [36]: 0.577 µM
TGI [36]: 8.9 µM
GI50 [37]: 1.14 µM
TGI [37]: 15.9 µM
GI50 [38]: 0.0167 µM
TGI [38]: 3.87 µM
GI50 [39]: 0.0136 µM
TGI [39]: 0.346 µM
GI50 [40]: 0.0181 µM
TGI [40]: 0.771 µM
GI50 [41]: < 0.0108 µM
TGI [41]: > 100 µM
GI50 [42]: 0.0825 µM
TGI [42]: 8.09 µM
GI50 [43]: < 0.0191 µM
GI50 [44]: 0.0228 µM
TGI [44]: > 100 µM
GI50 [45]: 0.052 µM
TGI [45]: 2.74 µM
GI50 [46]: < 0.01 µM
TGI [46]: 0.104 µM
GI50 [47]: 0.0511 µM
TGI [47]: > 100 µM
GI50 [48]: 0.214 µM
TGI [48]: > 42.7 µM
GI50 [49]: < 0.01 µM
TGI [49]: > 100 µM
GI50 [50]: 0.016 µM
TGI [50]: 3.4 µM
GI50 [51]: 1.59 µM
TGI [51]: > 84.1 µM
GI50 [52]: 0.0343 µM
TGI [52]: > 100 µM
GI50 [53]: 0.042 µM
TGI [53]: 2.47 µM
GI50 [54]: < 0.01 µM
TGI [54]: > 100 µM
GI50 [55]: 0.0734 µM
TGI [55]: 11 µM
GI50 [56]: < 0.01 µM
TGI [56]: > 100 µM
GI50 [57]: < 0.01 µM
TGI [57]: > 100 µM
GI50 [58]: 0.79 µM
TGI [58]: > 22.6 µM

Cc1ccc(-c2cc3c(NC(=O)C4CC4)ncnc3o2)cc1
GI50 [1]: > 25 µM
TGI [1]: > 25 µM
GI50 [2]: > 25 µM
TGI [2]: > 25 µM
GI50 [3]: > 25 µM
TGI [3]: > 25 µM
GI50 [4]: > 25 µM
TGI [4]: > 25 µM
GI50 [5]: > 25 µM
TGI [5]: > 25 µM
GI50 [6]: > 25 µM
TGI [6]: > 25 µM
GI50 [7]: 24.2 µM
TGI [7]: > 25 µM
GI50 [8]: > 25 µM
TGI [8]: > 25 µM
GI50 [9]: > 25 µM
TGI [9]: > 25 µM
GI50 [10]: > 25 µM
TGI [10]: > 25 µM
GI50 [11]: > 25 µM
TGI [11]: > 25 µM
GI50 [12]: > 25 µM
TGI [12]: > 25 µM
GI50 [13]: > 25 µM
TGI [13]: > 25 µM
GI50 [14]: > 25 µM
TGI [14]: > 25 µM
GI50 [15]: > 21.3 µM
TGI [15]: > 25 µM
GI50 [16]: > 25 µM
TGI [16]: > 25 µM
GI50 [17]: > 25 µM
TGI [17]: > 25 µM
GI50 [18]: > 25 µM
TGI [18]: > 25 µM
GI50 [19]: > 25 µM
TGI [19]: > 25 µM
GI50 [20]: > 25 µM
TGI [20]: > 25 µM
GI50 [21]: > 25 µM
TGI [21]: > 25 µM
GI50 [22]: > 25 µM
TGI [22]: > 25 µM
GI50 [23]: > 25 µM
TGI [23]: > 25 µM
GI50 [24]: > 25 µM
TGI [24]: > 25 µM
GI50 [25]: > 25 µM
TGI [25]: > 25 µM
GI50 [26]: > 25 µM
TGI [26]: > 25 µM
GI50 [27]: > 25 µM
TGI [27]: > 25 µM
GI50 [28]: > 25 µM
TGI [28]: > 25 µM
GI50 [29]: > 25 µM
TGI [29]: > 25 µM
GI50 [30]: > 25 µM
TGI [30]: > 25 µM
GI50 [31]: > 25 µM
TGI [31]: > 25 µM
GI50 [32]: > 25 µM
TGI [32]: > 25 µM
GI50 [33]: > 25 µM
TGI [33]: > 25 µM
GI50 [34]: > 25 µM
TGI [34]: > 25 µM
GI50 [35]: > 25 µM
TGI [35]: > 25 µM
GI50 [36]: > 25 µM
TGI [36]: > 25 µM
GI50 [37]: > 25 µM
TGI [37]: > 25 µM
GI50 [38]: > 25 µM
TGI [38]: > 25 µM
GI50 [39]: > 25 µM
TGI [39]: > 25 µM
GI50 [40]: > 25 µM
TGI [40]: > 25 µM
GI50 [41]: > 25 µM
TGI [41]: > 25 µM
GI50 [42]: > 25 µM
TGI [42]: > 25 µM
GI50 [43]: > 25 µM
TGI [43]: > 25 µM
GI50 [44]: > 25 µM
TGI [44]: > 25 µM
GI50 [45]: > 25 µM
TGI [45]: > 25 µM
GI50 [46]: > 25 µM
TGI [46]: > 25 µM
GI50 [47]: > 25 µM
TGI [47]: > 25 µM
GI50 [48]: > 25 µM
TGI [48]: > 25 µM
GI50 [49]: > 25 µM
TGI [49]: > 25 µM
GI50 [50]: > 25 µM
TGI [50]: > 25 µM
GI50 [51]: > 25 µM
TGI [51]: > 25 µM
GI50 [52]: > 25 µM
TGI [52]: > 25 µM
GI50 [53]: > 25 µM
TGI [53]: > 25 µM
GI50 [54]: > 25 µM
TGI [54]: > 25 µM
GI50 [55]: > 25 µM
TGI [55]: > 25 µM
GI50 [56]: > 25 µM
TGI [56]: > 25 µM
GI50 [57]: > 25 µM
TGI [57]: > 25 µM
GI50 [58]: > 25 µM
TGI [58]: > 25 µM
